Test results reported in patent publication US20240041813A1, “VERY-LONG-CHAIN POLYUNSATURATED FATTY ACIDS, ELOVANOID HYDROXYLATED DERIVATIVES, AND METHODS OF USE” (priority 2020, published 2024).

Assays:
ACE2 = test: Rat cornea alkali burn: ACE2 abundance by Jess capillary-based Western Blot; type: in vivo; settings: rat cornea after alkali burn; eye drops 20 μl/eye, 3 times/day for 14 days; day 14
From the text: Sprague-Dawley rats (8-week-old male) were obtained from Charles River Laboratories (Wilmington, MA, USA) and kept at the Animal Care of the Neuroscience Center of Excellence, Louisiana State University Health (LSUH; New Orleans, LA, USA). All animals were handled in compliance with the guidelines of the ARVO Statement for the Use of Animals in Ophthalmic and Vision Research, and the experimental protocol was approved by the Institutional Animal Care and Use Committee (IACUC) at LSUH.
The rats were anesthetized by intraperitoneal injection of Ketamine (50-100 mg/kg) plus xylazine (5-10 mg/kg). A 4 mm diameter filter paper soaked in 1 N NaOH was placed on the central cornea of the right eye for 45 seconds, and then the eye was thoroughly washed with […] of saline. After injury, the rats were randomly divided into five treatment groups: vehicle; lipoxin A4 (LXA4) from Cayman Chemical (Ann Arbor, MI, USA); R,R Resolvin D6 isomer (RvD6i), R,R neuroprotection D (NPD1), and elovanoid (ELV)-N32. All lipid solutions were prepared at the final concentration of […] using PBS with the minimal contamination of ethanol by evaporating the ethanol and immediately dissolve the lipids in PBS, then vortex well for 2 min. Topical administration (20 μl) was done 3×/day for 14 days. The experiments were double-blinded with the lipid mediators coded during the whole experiments. At the end of the study, when all data was collected, the code was opened.
Briefly, samples were lysed with RIPA buffer containing a protease inhibitor cocktail (Sigma, Cat. P8340). Cell debris was removed after 10 min centrifugation at 16,000×g. Protein concentration was determined by BCA assay (Thermo Fisher Scientific, Cat. 23225) and 1 μg used/reaction. Fluorescent Master Mix was mixed with 40 mM DTT, and the mixture was added to each sample to provide a denaturing and reducing environment. Samples were heated at 95° C./5 min, and 3 μL of each sample were loaded. The 12-230 kDa cartridge (Protein Simple—#SM-W004) was used. Primary antibodies were diluted in antibody diluent 2 buffer (Protein Simple, #042-203) while the working solution of secondary antibodies was provided by the company (Protein Simple, #042-206). Then, the filled plate was spin-down for 10 min at 1,000×g to remove bubbles and plate, and capillaries were loaded into the Jess machine. For data analysis, the area of spectra that matched the molecular weight of the target protein was used. To reduce the coefficient variant, we analyzed the GAPDH for each capillary. The ratio of the targeted protein to GAPDH was used for statistical comparisons. For visualization, the artificial lanes generated from spectra volume was used.

Cdkn2a (p16INK4a) = test: HCEC challenged with IFNγ: Cdkn2a gene expression; type: cell-based, human; settings: IFNγ 100 ng/ml
From the text: All experiments with human corneal epithelial cells were approved by the Institutional Review Board of LSUHNO and conducted in accordance with NIH guidelines. HCEC were kept frozen in the laboratory at passage 2544. Cells were maintained in keratinocyte growth (KGM) medium containing the keratinocyte basal medium (KBM) (Lonza: CC-3101) supplemented with bovine pituitary extract (BPE), hEGF, Insulin, Hydrocortisone and Gentamicin Sulfate-Amphotericin (GA-1000) (Lonza, Cat. CC-4131). For all experiments, cells were seeded at 30,000 cells/cm2.
For screening the stimulation of receptor ACE2 by cytokines, the HCEC were cultured with KGM until 50-60% confluence. Then, changed to KBM containing IL-1β, -2, -6 and 8, IFN-α, -ε, and -γ or TNFα at 1, 10 or 100 ng/ml. The cells were harvested after 6 hours and analyze for the gene expression of Ace2. In other experiments, HCEC were stimulated with IFNγ, and thereafter, lipid mediators were added. For the Alexa 594-conjugated RBD binding, IFNγ was used as a cytokine trigger. At 12 hours after cytokine exposure and lipid mediator treatments, […] of labeled RBD was added to the medium. The evaluation of RBD binding was conducted 24 hours after.
Quantitative PCR was performed with the Biomark HD system (Fluidigm, San Francisco, CA, USA). Briefly, 200 ng of RNA was reverse-transcribed using iScript Reverse Transcription Supermix (Bio-Rad), and the cDNA was pre-amplified using the PreAmp Master Mix (PN 100-5580; Fluidigm). The cDNA was then subjected to Exonuclease I treatment and diluted 5 times in TE Buffer. The qPCR reaction mixture and primer reaction mixture were made and loaded into the Biomark 96.96 IFC™ (Integrated Fluidic Circuit). The enzyme reaction was mixed using Juno™ Controller (Fluidigm) and run using the cycling program of (i) 70° C. for 40 minutes followed by 60° C. for 30 seconds, (ii) hot start for 1 minute at 95° C., (iii) 30 cycles of denaturation at 96° C. for 5 seconds, and annealing at 60° C. for 20 seconds, and (iv) melting curves between 60° C. and 95° C. with 1° C. increments/3 seconds. The Ct value of target genes was normalized to the house-keeping genes Gapdh, Hprt1, and Tfrc before normalized to the vehicle group. Relative fold changes from the ΔΔCT calculation was used to make the graph.

With `CC/C=C\CC(O)\C=C/C=C/C=C/C(O)C/C=C\C/C=C\CCCCCCCCCCCCC(=O)O` [ELV-N32, (14Z,17Z,20R,21E,23E,25Z,27S,29Z)-20,27-dihydroxydo-triaconta-14,17,21,23,25,29-hexaenoic acid] the “ACE2 abundance (protein, normalized to GAPDH)” value (ACE2) was “decrease” and the Cdkn2a activation (Cdkn2a (p16INK4a)) was “decrease”.
